Data: ChEMBL document CHEMBL1133580, “Successful virtual screening of a chemical database for farnesyltransferase inhibitor leads” (J Med Chem, 2000)
Active and inactive are the calls of the source. The calls are words filed in the database; no cut-off is given here.

Key:
Format in all cases: protein-complex assay
[1] = molecular target: T1, Protein farnesyltransferase (Rattus norvegicus) (UniProt Q04631+Q02293); assay: In vitro inhibition of farnesyl transferase (FT) by using FT [3H]-SPA kit; IA is inactive
[2] = molecular target: T1, Protein farnesyltransferase (Rattus norvegicus); assay: In vitro inhibition of farnesyl transferase (FT) by using FT [3H]-SPA kit at the dose of 100 uM
[3] = molecular target: T1, Protein farnesyltransferase (Rattus norvegicus); assay: In vitro inhibition of farnesyl transferase (FT) by using FT [3H]-SPA kit at the dose of 500 uM
[4] = molecular target: Protein farnesyltransferase (Rattus norvegicus, UniProt Q02293+Q04631); assay: In vitro inhibition of Farnesyltransferase (FT) by using FT [3H]-SPA kit.

| Compound | inhibition [1] | inhibition [2] | other results |
| --- | --- | --- | --- |
| COc1cccc(NS(=O)(=O)c2ccc(-c3ccc(S(=O)(=O)Nc4cccc(OC)c4)s3)s2)c1 | inactive |  |  |
| O=C(Oc1cc(S(=O)(=O)c2ccccc2)ccc1[N+](=O)[O-])c1cccnc1Cl |  | 19.7% |  |
| O=[N+]([O-])c1cc(C(F)(F)F)cc([N+](=O)[O-])c1Oc1ccc(S(=O)(=O)N2CCOCC2)cc1 |  |  | inhibition [3]: 50.8% |
| O=C1NC(=S)S/C1=C\c1ccccc1I |  | 39.2% |  |
| O=[N+]([O-])c1ccc(-c2csc(-c3ccc(Cl)cc3)n2)cc1CS(=O)(=O)c1ccc(Cl)cc1 | inactive |  |  |
| Cc1cc(-c2nc(-c3ccc(C(F)(F)F)cc3)no2)n(C)n1 | inactive |  |  |
| N=C(NOC(=O)Nc1ccc(Cl)cc1)c1ccc(OCc2ncc(C(F)(F)F)cc2Cl)cc1 | inactive |  |  |
| Clc1ccc(-c2cc(-c3csc(N/N=C/c4ccccc4)n3)on2)c(Cl)c1 | inactive |  |  |
| COc1ccc(C=C(C(=O)c2ccccc2)C(=O)c2ccccc2)cc1 |  | 30% |  |
| CC(=O)c1cc(C(=O)c2ccc(F)cc2)n2cnc3cc(F)ccc3c12 |  | 24.5% |  |
| O=C(Nc1ccc(F)cc1[N+](=O)[O-])Oc1ccc2cc(Br)ccc2c1 |  | 26.4% |  |
| Nc1c(C(=O)Nc2ccccc2)sc2nc3c(c(-c4cccnc4)c12)CCC3 |  |  | inhibition [3]: 23.9% |
| Cc1ccc(S(=O)(=O)N(C)c2ccc(Cl)cc2C2=NCC(C)(C)c3ccccc32)cc1 |  | 16.8% |  |
| CC(=O)OCC(COC(C)=O)(CN1C(=O)c2ccccc2C1=O)CN1C(=O)c2ccccc2C1=O |  |  | inhibition [3]: 60.2% |
| COc1ccccc1/N=C(\S)NC1CCCCCCCCCCC1 | inactive |  |  |
| Cc1c(-c2ccnc(SCc3ccccc3)n2)sc2ccc(Cl)cc12 | inactive |  |  |
| Cc1cc(C)c(S(=O)(=O)Cc2ccccc2)c(OC(C)C)n1 | inactive |  |  |
| NC(=O)c1cc2c(c([N+](=O)[O-])c1)-c1c(cc(C(N)=O)cc1[N+](=O)[O-])C2=O |  |  | inhibition [3]: 27.3% |
| CCCCCCn1c(N)c(C#N)c2ccc([N+](=O)[O-])cc2c1=O |  | 32.2% |  |

| Compound | inhibition [1] | inhibition [2] | other results |
| --- | --- | --- | --- |
| O=C(OCC(F)(F)C(F)(F)C(F)(F)C(F)(F)F)c1cc([N+](=O)[O-])cc2c1-c1c(cc([N+](=O)[O-])cc1[N+](=O)[O-])C2=O |  | 41.1% |  |
| CCN(CC)c1cccc(OC(=O)Nc2cccc(C(F)(F)F)c2)c1 |  |  | inhibition [3]: 21.2% |
| O=C(Cc1cccc2ccccc12)NC(NC(=S)N1CCOCC1)C(Cl)(Cl)Cl (stereo not drawn) |  | 23.8% |  |
| Cc1ccc(S(=O)(=O)C(Cl)(Cl)S(=O)(=O)c2ccc(C)cc2)cc1 |  | 41.6% |  |
| O=C(Cc1c(Cl)cc(Cl)cc1Cl)C(=O)Oc1c(Cl)cc(Cl)cc1Cl | inactive |  |  |
| O=C1c2cccc([N+](=O)[O-])c2C(=O)N1c1ccc(S(=O)(=O)c2ccc(N3C(=O)c4cccc([N+](=O)[O-])c4C3=O)cc2)cc1 | inactive |  |  |
| COc1cccc(C2Nc3ccccc3CN2NS(=O)(=O)c2ccc(C)cc2)c1O (stereo not drawn) |  |  | inhibition [3]: 16.8% |
| COc1cc(C(c2c(O)oc3ccccc3c2=O)c2c(O)oc3ccccc3c2=O)cc(OC)c1OC |  | 27.8% |  |
| CN(C)c1ccc(C(=O)N/N=C/c2ccccc2[N+](=O)[O-])cc1 |  |  | inhibition [3]: 28.3% |
| Cc1ccc(S(=O)(=O)NC2(Nc3cccc(C)c3)C(Cl)=C(Cl)C(=O)C(Cl)(Cl)C2(Cl)Cl)cc1 (stereo not drawn) |  |  | inhibition [3]: 24.9% |
| COc1ccc(CCN2C(=O)CS/C2=N\c2c(C)cccc2C)cc1OC | inactive |  |  |
| CSc1nc(N/C=C(\C#N)S(=O)(=O)c2ccccc2Cl)nc(N(C)C)n1 | inactive |  |  |
| O=C(N/N=C/c1ccccc1O)N(c1ccccc1)c1ccccc1 | inactive |  |  |
| O=[N+]([O-])c1ccc(C2CC(c3cccnc3)=NN2c2ccccc2)cc1 (stereo not drawn) |  | 43.9% |  |
| O=C1c2cc([N+](=O)[O-])cc(C(=O)N3CCCCC3)c2-c2c1cc([N+](=O)[O-])cc2[N+](=O)[O-] |  |  | IC50 [4]: 96 µM |
| CCN(CC#N)c1ccc(/C=N/c2ccc(SC)cc2)cc1 |  |  | inhibition [3]: 15.8% |
| CC(C)C(NC(=O)OCc1ccccc1)C(=O)NC(C)(C)C (stereo not drawn) | inactive |  |  |
| O=C(NC(=O)C(c1ccc(Cl)cc1)c1ncc(C(F)(F)F)cc1Cl)Nc1ccc(Cl)cc1 (stereo not drawn) | inactive |  |  |
| Cc1c(/N=C/N(C(=O)c2ccccc2)c2cccc([N+](=O)[O-])c2C)cccc1[N+](=O)[O-] |  |  | inhibition [3]: 17% |
